A short description of this series: activity coefficient (dimensionless); of the first substance listed, at infinite dilution; xn = mol fraction of the nth substance listed. Conditions: 101 kPa, Liquid, Chromatography, x1 = 0.

Numbers after ± are expanded uncertainties.

Consider `CCCCCCC` [heptane] + CCCC[N+]1(C)CCCC1.N#C[B-](C#N)(C#N)C#N, for which the activity coefficient by setting is: (318.15 K) 23 ± 1.6; (328.15 K) 21.5 ± 1.5; (338.15 K) 19.8 ± 1.4; (348.15 K) 19 ± 1.3; (358.15 K) 17.5 ± 1.2; (368.15 K) 16.6 ± 1.1.

For `CCCCC` [pentane] + CCCC[N+]1(C)CCCC1.N#C[B-](C#N)(C#N)C#N, the activity coefficient reads like this: (318.15 K) 12.1 ± 0.8; (328.15 K) 11.2 ± 0.8; (338.15 K) 10.5 ± 0.7; (348.15 K) 10.2 ± 0.7; (358.15 K) 9.56 ± 0.65; (368.15 K) 9.09 ± 0.62.

On to `CCCO` [propan-1-ol] + CCCC[N+]1(C)CCCC1.N#C[B-](C#N)(C#N)C#N, for which the activity coefficient turned out to be 1.5 ± 0.1 (318.15 K); 1.36 ± 0.09 (328.15 K); 1.27 ± 0.08 (338.15 K); 1.18 ± 0.08 (348.15 K); 1.1 ± 0.07 (358.15 K); 1.04 ± 0.07 (368.15 K).

With `C=CCCCCCCCC` [1-decene] + CCCC[N+]1(C)CCCC1.N#C[B-](C#N)(C#N)C#N, the activity coefficient (318.15 K) worked out at 29.7 ± 2; the activity coefficient (328.15 K) came out at 28.3 ± 1.9; the activity coefficient (338.15 K) was found to be 27.1 ± 1.9; the activity coefficient (348.15 K) was found to be 26.1 ± 1.8; the activity coefficient (358.15 K) worked out at 23.5 ± 1.6; the activity coefficient (368.15 K) was determined as 22.8 ± 1.6.

For the compound `CO` [methanol] + CCCC[N+]1(C)CCCC1.N#C[B-](C#N)(C#N)C#N, the activity coefficient by setting is: (318.15 K) 0.991 ± 0.062; (328.15 K) 0.912 ± 0.058; (338.15 K) 0.861 ± 0.055; (348.15 K) 0.812 ± 0.053; (358.15 K) 0.753 ± 0.05; (368.15 K) 0.723 ± 0.048.

Take `Cc1ccccc1C` [1,2-dimethylbenzene] + CCCC[N+]1(C)CCCC1.N#C[B-](C#N)(C#N)C#N: the activity coefficient (318.15 K) was 1.34 ± 0.09; the activity coefficient (328.15 K) worked out at 1.36 ± 0.09; the activity coefficient (338.15 K) is 1.39 ± 0.09; the activity coefficient (348.15 K) was 1.41 ± 0.09; the activity coefficient (358.15 K) worked out at 1.43 ± 0.09; the activity coefficient (368.15 K) came out at 1.46 ± 0.1.

For `CCc1ccccc1` [ethylbenzene] + CCCC[N+]1(C)CCCC1.N#C[B-](C#N)(C#N)C#N, the activity coefficient (318.15 K) stood at 1.56 ± 0.1; the activity coefficient (328.15 K) was 1.58 ± 0.1; the activity coefficient (338.15 K) was 1.6 ± 0.11; the activity coefficient (348.15 K) turned out to be 1.64 ± 0.11; the activity coefficient (358.15 K) is 1.66 ± 0.11; the activity coefficient (368.15 K) is 1.69 ± 0.11.

Consider `CC1CCCCC1` [methylcyclohexane] + CCCC[N+]1(C)CCCC1.N#C[B-](C#N)(C#N)C#N, for which the activity coefficient is, setting by setting: (318.15 K) 11.9 ± 0.8; (328.15 K) 11 ± 0.8; (338.15 K) 10.5 ± 0.7; (348.15 K) 10.1 ± 0.7; (358.15 K) 9.38 ± 0.64; (368.15 K) 8.94 ± 0.61.

As to `COC(C)(C)C` [2-methoxy-2-methylpropane] + CCCC[N+]1(C)CCCC1.N#C[B-](C#N)(C#N)C#N, the activity coefficient is, setting by setting: (318.15 K) 2.37 ± 0.16; (328.15 K) 2.39 ± 0.16; (338.15 K) 2.46 ± 0.17; (348.15 K) 2.48 ± 0.17; (358.15 K) 2.52 ± 0.17; (368.15 K) 2.55 ± 0.17.

Turning to `C1CCCCCC1` [cycloheptane] + CCCC[N+]1(C)CCCC1.N#C[B-](C#N)(C#N)C#N, the activity coefficient runs as follows: (318.15 K) 10.4 ± 0.7; (328.15 K) 9.7 ± 0.66; (338.15 K) 9.18 ± 0.63; (348.15 K) 8.85 ± 0.6; (358.15 K) 8.21 ± 0.56; (368.15 K) 7.78 ± 0.53.

For `C1CCCCC1` [cyclohexane] + CCCC[N+]1(C)CCCC1.N#C[B-](C#N)(C#N)C#N, the activity coefficient was 8.42 ± 0.57 (318.15 K); 7.8 ± 0.53 (328.15 K); 7.45 ± 0.51 (338.15 K); 7.23 ± 0.49 (348.15 K); 6.75 ± 0.46 (358.15 K); 6.47 ± 0.44 (368.15 K).

On to `C=CCCC` [1-pentene] + CCCC[N+]1(C)CCCC1.N#C[B-](C#N)(C#N)C#N, for which the activity coefficient amounted to 5.58 ± 0.38 (318.15 K); 5.32 ± 0.36 (328.15 K); 5.3 ± 0.36 (338.15 K); 5.24 ± 0.36 (348.15 K); 5.01 ± 0.34 (358.15 K); 5.02 ± 0.34 (368.15 K).

With `c1ccsc1` [thiophene] + CCCC[N+]1(C)CCCC1.N#C[B-](C#N)(C#N)C#N, the activity coefficient reads like this: (318.15 K) 0.659 ± 0.045; (328.15 K) 0.663 ± 0.045; (338.15 K) 0.684 ± 0.046; (348.15 K) 0.702 ± 0.047; (358.15 K) 0.711 ± 0.047; (368.15 K) 0.734 ± 0.049.

In the case of `C1CCCC1` [cyclopentane] + CCCC[N+]1(C)CCCC1.N#C[B-](C#N)(C#N)C#N, the activity coefficient reads like this: (318.15 K) 5.87 ± 0.4; (328.15 K) 5.47 ± 0.37; (338.15 K) 5.27 ± 0.36; (348.15 K) 5.18 ± 0.35; (358.15 K) 4.88 ± 0.33; (368.15 K) 4.72 ± 0.32.

As for `CCC(C)(C)C` [2,2-dimethylbutane] + CCCC[N+]1(C)CCCC1.N#C[B-](C#N)(C#N)C#N, the activity coefficient worked out at 15.7 ± 1.1 (318.15 K); 14 ± 1 (328.15 K); 13.2 ± 0.9 (338.15 K); 12.9 ± 0.9 (348.15 K); 12.1 ± 0.8 (358.15 K); 11.2 ± 0.8 (368.15 K).

In the case of `C#CCCCCC` [1-heptyne] + CCCC[N+]1(C)CCCC1.N#C[B-](C#N)(C#N)C#N, the activity coefficient is, setting by setting: (318.15 K) 3.49 ± 0.24; (328.15 K) 3.5 ± 0.24; (338.15 K) 3.51 ± 0.24; (348.15 K) 3.53 ± 0.24; (358.15 K) 3.54 ± 0.24; (368.15 K) 3.56 ± 0.24.

With `CC(C)=O` [acetone] + CCCC[N+]1(C)CCCC1.N#C[B-](C#N)(C#N)C#N, the activity coefficient (318.15 K) is 0.439 ± 0.035; the activity coefficient (328.15 K) turned out to be 0.441 ± 0.035; the activity coefficient (338.15 K) is 0.454 ± 0.036; the activity coefficient (348.15 K) was 0.464 ± 0.036; the activity coefficient (358.15 K) was found to be 0.468 ± 0.037; the activity coefficient (368.15 K) is 0.485 ± 0.037.

`O` [water] + CCCC[N+]1(C)CCCC1.N#C[B-](C#N)(C#N)C#N: the activity coefficient was 2.15 ± 0.15 (318.15 K); 1.87 ± 0.13 (328.15 K); 1.73 ± 0.12 (338.15 K); 1.58 ± 0.1 (348.15 K); 1.39 ± 0.09 (358.15 K); 1.28 ± 0.08 (368.15 K).

Take `CCCCCCCCC` [nonane] + CCCC[N+]1(C)CCCC1.N#C[B-](C#N)(C#N)C#N: the activity coefficient is, setting by setting: (318.15 K) 46.2 ± 3.2; (328.15 K) 42.5 ± 2.9; (338.15 K) 38.2 ± 2.6; (348.15 K) 36.3 ± 2.5; (358.15 K) 32.6 ± 2.2; (368.15 K) 30.3 ± 2.1.

`CCC(=O)CC` [pentan-3-one] + CCCC[N+]1(C)CCCC1.N#C[B-](C#N)(C#N)C#N: the activity coefficient (318.15 K) came out at 0.65 ± 0.044; the activity coefficient (328.15 K) was determined as 0.664 ± 0.045; the activity coefficient (338.15 K) came to 0.688 ± 0.046; the activity coefficient (348.15 K) stood at 0.71 ± 0.047; the activity coefficient (358.15 K) came to 0.719 ± 0.048; the activity coefficient (368.15 K) worked out at 0.732 ± 0.048.

Consider `Cc1ccccc1` [toluene] + CCCC[N+]1(C)CCCC1.N#C[B-](C#N)(C#N)C#N, for which the activity coefficient (318.15 K) turned out to be 1.09 ± 0.07; the activity coefficient (328.15 K) was found to be 1.11 ± 0.07; the activity coefficient (338.15 K) stood at 1.14 ± 0.07; the activity coefficient (348.15 K) worked out at 1.16 ± 0.07; the activity coefficient (358.15 K) turned out to be 1.18 ± 0.08; the activity coefficient (368.15 K) turned out to be 1.2 ± 0.08.

Turning to `C=CCCCCC` [1-heptene] + CCCC[N+]1(C)CCCC1.N#C[B-](C#N)(C#N)C#N, the activity coefficient is 10.7 ± 0.7 (318.15 K); 10.2 ± 0.7 (328.15 K); 10 ± 0.7 (338.15 K); 9.72 ± 0.66 (348.15 K); 9.09 ± 0.62 (358.15 K); 8.93 ± 0.61 (368.15 K).

For the compound `C=CCCCCCC` [oct-1-ene] + CCCC[N+]1(C)CCCC1.N#C[B-](C#N)(C#N)C#N, the activity coefficient by setting is: (318.15 K) 15.4 ± 1.1; (328.15 K) 14.6 ± 1; (338.15 K) 14.1 ± 1; (348.15 K) 13.4 ± 0.9; (358.15 K) 12.6 ± 0.9; (368.15 K) 12.5 ± 0.9.

`CCCOCCC` [dipropyl ether] + CCCC[N+]1(C)CCCC1.N#C[B-](C#N)(C#N)C#N: the activity coefficient (318.15 K) was found to be 5.78 ± 0.39; the activity coefficient (328.15 K) was determined as 5.65 ± 0.39; the activity coefficient (338.15 K) was 5.51 ± 0.38; the activity coefficient (348.15 K) came to 5.42 ± 0.37; the activity coefficient (358.15 K) was found to be 5.33 ± 0.36; the activity coefficient (368.15 K) was 5.26 ± 0.36.

On to `CCCCCCCCCC` [decane] + CCCC[N+]1(C)CCCC1.N#C[B-](C#N)(C#N)C#N, for which the activity coefficient is 65.7 ± 4.5 (318.15 K); 59.5 ± 4.1 (328.15 K); 53.8 ± 3.7 (338.15 K); 50.4 ± 3.5 (348.15 K); 44.9 ± 3.1 (358.15 K); 42.1 ± 2.9 (368.15 K).

Consider `C1=CCCCC1` [cyclohexene] + CCCC[N+]1(C)CCCC1.N#C[B-](C#N)(C#N)C#N, for which the activity coefficient is, setting by setting: (318.15 K) 4.09 ± 0.28; (328.15 K) 3.97 ± 0.27; (338.15 K) 3.93 ± 0.27; (348.15 K) 3.88 ± 0.26; (358.15 K) 3.73 ± 0.25; (368.15 K) 3.71 ± 0.25.

With `CCO` [ethanol] + CCCC[N+]1(C)CCCC1.N#C[B-](C#N)(C#N)C#N, the activity coefficient (318.15 K) was determined as 1.29 ± 0.08; the activity coefficient (328.15 K) was 1.17 ± 0.07; the activity coefficient (338.15 K) was determined as 1.09 ± 0.07; the activity coefficient (348.15 K) was 1.02 ± 0.06; the activity coefficient (358.15 K) is 0.95 ± 0.06; the activity coefficient (368.15 K) came to 0.894 ± 0.057.

The values are drawn from the NIST ThermoML archive (doi:10.1016/j.jct.2011.06.007).
